Measured values as given in the supplement of paper PMC10307832.

Key:
Test in all cases: relative viability (nuclei count vs DMSO), 5 days (fraction); higher = more cells survive
201T = test system: 201T
Outline: (§1)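 Medians of duplicate plates are given as relative viability. That measure is the nuclei count in treated wells divided by the count in vehicle wells. Counts were taken on 4× images of lung cancer cell lines in 1536-well plates, 5 days after pin-tool dosing the day after seeding with one drug alone or a fixed anchor-drug dose plus five library-drug doses (not always all listed) in √10 steps.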

A-427 = test system: A-427
Outline: as §1

ABC-1 = test system: ABC-1
Outline: as §1

BEN = test system: BEN
Outline: as §1

CAL-12T = test system: CAL-12T
Outline: as §1

H3255 = test system: H3255
Outline: as §1

LC-2-ad = test system: LC-2-ad
Outline: as §1

LCLC-97TM1 = test system: LCLC-97TM1
Outline: as §1

NCI-H1650 = test system: NCI-H1650
Outline: as §1

NCI-H1651 = test system: NCI-H1651
Outline: as §1

NCI-H1915 = test system: NCI-H1915
Outline: as §1

NCI-H1944 = test system: NCI-H1944
Outline: as §1

NCI-H2023 = test system: NCI-H2023
Outline: as §1

NCI-H2087 = test system: NCI-H2087
Outline: as §1

NCI-H441 = test system: NCI-H441
Outline: as §1

NCI-H460 = test system: NCI-H460
Outline: as §1

NCI-H520 = test system: NCI-H520
Outline: as §1

NCI-H596 = test system: NCI-H596
Outline: as §1

NCI-H650 = test system: NCI-H650
Outline: as §1

NCI-H661 = test system: NCI-H661
Outline: as §1

NCI-H727 = test system: NCI-H727
Outline: as §1

PC-3 [JPC-3] = test system: PC-3 [JPC-3]
Outline: as §1

O=c1cc(N2CCOCC2)oc2c(-c3cccc4c3sc3ccccc34)cccc12 + COc1cccc2cc(-c3nc([C@H]4CC[C@H](C(=O)O)CC4)n4ncnc(N)c34)[nH]c12 [OSI-027] (partner 0.5 µM)
relative viability (201T; first compound 0.01 µM): 0.811 | relative viability (201T; first compound 0.03162 µM): 0.832 | relative viability (201T; first compound 0.1 µM): 0.715 | relative viability (201T; first compound 0.3162 µM): 0.721 | relative viability (201T; first compound 1 µM): 0.645 | relative viability (A-427; first compound 0.01 µM): 0.514 | relative viability (A-427; first compound 0.03162 µM): 0.469 | relative viability (A-427; first compound 0.1 µM): 0.337 | relative viability (A-427; first compound 0.3162 µM): 0.484 | relative viability (A-427; first compound 1 µM): 0.587 | relative viability (ABC-1; first compound 0.01 µM): 0.483 | relative viability (ABC-1; first compound 0.03162 µM): 0.436 | relative viability (ABC-1; first compound 0.1 µM): 0.557 | relative viability (ABC-1; first compound 0.3162 µM): 0.523 | relative viability (ABC-1; first compound 1 µM): 0.501 | relative viability (BEN; first compound 0.01 µM): 0.304 | relative viability (BEN; first compound 0.03162 µM): 0.309 | relative viability (BEN; first compound 0.1 µM): 0.302 | relative viability (BEN; first compound 0.3162 µM): 0.323 | relative viability (BEN; first compound 1 µM): 0.311 | relative viability (CAL-12T; first compound 0.01 µM): 0.69 | relative viability (CAL-12T; first compound 0.03162 µM): 0.71 | relative viability (CAL-12T; first compound 0.1 µM): 0.599 | relative viability (CAL-12T; first compound 0.3162 µM): 0.728 | relative viability (CAL-12T; first compound 1 µM): 0.707 | relative viability (H3255; first compound 0.01 µM): 0.659 | relative viability (H3255; first compound 0.03162 µM): 0.503 | relative viability (H3255; first compound 0.1 µM): 0.584 | relative viability (H3255; first compound 0.3162 µM): 0.668 | relative viability (H3255; first compound 1 µM): 0.536 | relative viability (LC-2-ad; first compound 0.01 µM): 0.903 | relative viability (LC-2-ad; first compound 0.03162 µM): 0.993 | relative viability (LC-2-ad; first compound 0.1 µM): 0.877 | relative viability (LC-2-ad; first compound 0.3162 µM): 0.915 | relative viability (LC-2-ad; first compound 1 µM): 0.785 | relative viability (LCLC-97TM1; first compound 0.01 µM): 0.583 | relative viability (LCLC-97TM1; first compound 0.03162 µM): 0.684 | relative viability (LCLC-97TM1; first compound 0.1 µM): 0.491 | relative viability (LCLC-97TM1; first compound 0.3162 µM): 0.612 | relative viability (LCLC-97TM1; first compound 1 µM): 0.555 | relative viability (NCI-H1650; first compound 0.01 µM): 0.519 | relative viability (NCI-H1650; first compound 0.03162 µM): 0.631 | relative viability (NCI-H1650; first compound 0.1 µM): 0.535 | relative viability (NCI-H1650; first compound 0.3162 µM): 0.769 | relative viability (NCI-H1650; first compound 1 µM): 0.592 | relative viability (NCI-H1651; first compound 0.01 µM): 0.593 | relative viability (NCI-H1651; first compound 0.03162 µM): 0.704 | relative viability (NCI-H1651; first compound 0.1 µM): 0.668 | relative viability (NCI-H1651; first compound 0.3162 µM): 0.654 | relative viability (NCI-H1651; first compound 1 µM): 0.636 | relative viability (NCI-H1915; first compound 0.01 µM): 0.672 | relative viability (NCI-H1915; first compound 0.03162 µM): 0.796 | relative viability (NCI-H1915; first compound 0.1 µM): 0.663 | relative viability (NCI-H1915; first compound 0.3162 µM): 0.647 | relative viability (NCI-H1915; first compound 1 µM): 0.65 | relative viability (NCI-H1944; first compound 0.01 µM): 0.443 | relative viability (NCI-H1944; first compound 0.03162 µM): 0.436 | relative viability (NCI-H1944; first compound 0.1 µM): 0.429 | relative viability (NCI-H1944; first compound 0.3162 µM): 0.44 | relative viability (NCI-H1944; first compound 1 µM): 0.391 | relative viability (NCI-H2023; first compound 0.01 µM): 0.456 | relative viability (NCI-H2023; first compound 0.03162 µM): 0.536 | relative viability (NCI-H2023; first compound 0.1 µM): 0.424 | relative viability (NCI-H2023; first compound 0.3162 µM): 0.394 | relative viability (NCI-H2023; first compound 1 µM): 0.411 | relative viability (NCI-H2087; first compound 0.01 µM): 0.569 | relative viability (NCI-H2087; first compound 0.03162 µM): 0.637 | relative viability (NCI-H2087; first compound 0.1 µM): 0.544 | relative viability (NCI-H2087; first compound 0.3162 µM): 0.416 | relative viability (NCI-H2087; first compound 1 µM): 0.599 | relative viability (NCI-H441; first compound 0.01 µM): 0.679 | relative viability (NCI-H441; first compound 0.03162 µM): 0.617 | relative viability (NCI-H441; first compound 0.1 µM): 0.537 | relative viability (NCI-H441; first compound 0.3162 µM): 0.614 | relative viability (NCI-H441; first compound 1 µM): 0.648 | relative viability (NCI-H460; first compound 0.01 µM): 0.659 | relative viability (NCI-H460; first compound 0.03162 µM): 0.717 | relative viability (NCI-H460; first compound 0.1 µM): 0.683 | relative viability (NCI-H460; first compound 0.3162 µM): 0.68 | relative viability (NCI-H460; first compound 1 µM): 0.653 | relative viability (NCI-H520; first compound 0.01 µM): 0.284 | relative viability (NCI-H520; first compound 0.03162 µM): 0.299 | relative viability (NCI-H520; first compound 0.1 µM): 0.235 | relative viability (NCI-H520; first compound 0.3162 µM): 0.229 | relative viability (NCI-H520; first compound 1 µM): 0.323 | relative viability (NCI-H596; first compound 0.01 µM): 0.738 | relative viability (NCI-H596; first compound 0.03162 µM): 0.747 | relative viability (NCI-H596; first compound 0.1 µM): 0.493 | relative viability (NCI-H596; first compound 0.3162 µM): 0.828 | relative viability (NCI-H596; first compound 1 µM): 0.722 | relative viability (NCI-H650; first compound 0.03162 µM): 0.591 | relative viability (NCI-H650; first compound 0.1 µM): 0.391 | relative viability (NCI-H650; first compound 0.3162 µM): 0.598 | relative viability (NCI-H650; first compound 1 µM): 0.493 | relative viability (NCI-H661; first compound 0.01 µM): 0.692 | relative viability (NCI-H661; first compound 0.03162 µM): 0.738 | relative viability (NCI-H661; first compound 0.1 µM): 0.772 | relative viability (NCI-H661; first compound 0.3162 µM): 0.756 | relative viability (NCI-H661; first compound 1 µM): 0.708 | relative viability (NCI-H727; first compound 0.01 µM): 0.498 | relative viability (NCI-H727; first compound 0.03162 µM): 0.567 | relative viability (NCI-H727; first compound 0.1 µM): 0.473 | relative viability (NCI-H727; first compound 0.3162 µM): 0.592 | relative viability (NCI-H727; first compound 1 µM): 0.659 | relative viability (PC-3 [JPC-3]; first compound 0.01 µM): 0.762 | relative viability (PC-3 [JPC-3]; first compound 0.03162 µM): 0.768 | relative viability (PC-3 [JPC-3]; first compound 0.1 µM): 0.644 | relative viability (PC-3 [JPC-3]; first compound 0.3162 µM): 0.738 | relative viability (PC-3 [JPC-3]; first compound 1 µM): 0.825
